Laboratory results reported in patent US12065420B2, “Uses of balaenone and method of extraction thereof” (HARDIE HEALTH LIMITED, priority 2018, dated 2024).

What was measured:
[1] = Storage stability of Balaenone; assay type: physicochemical; details: away from light and oxygen
Excerpt: Final purification of trans-Balaenone on silica gel separated it from an oxygenated aromatic compound, subsequently identified as halifordin (8). Without being bound by theory, it is believed that degradation is due to the presence of halifordin (8), which is also present in the methanol extract of M. latifolia.
In a separate experiment, purified trans-Balaenone was photochemically reacted with atmospheric oxygen in the presence of Rose Bengal (another known photogenerator of singlet oxygen), which generated 7b among other oxidation products.
Removal of halifordin (8) from the extract provides a purified composition of trans-Balaenone in which trans-Balaenone is stable at room temperature, when stored away from light and oxygen. It is believed that the same process would occur with respect to cis-Balaenone.

[2] = system: Staphylococcus epidermidis; experiment: TLC bioautography antibacterial assay, S. epidermidis; assay type: cell-based; details: qualitative
Protocol: (§1) The crude (1st methanolic) extract of M. latifolia bark and five chromatographic fractions obtained using the purification process outlined in Example 1 were submitted for TLC bioautography studies for qualitative determination of antibacterial activity.
(§2) Briefly, a reference plate was prepared by loading the samples on a silica gel TLC plate which was developed using an established solvent system (10% ethyl acetate in petroleum ether) to separate their components based on polarity. The developed plates were then visualised using 5% v/v sulfuric acid in methanol+0.1% w/v vanillin in ethanol, followed by heat. Using this method, Balaenone was distinguished as a bright pink to red spot (see FIG. 7).
(§3) Multiple copies of this plate were then prepared and developed using the same solvent system, but instead are visualised by pouring agar inoculated/spiked with one of the following micro-organisms (see below) and allowed to incubate before visualisation with a reduction dye.

Staphylococcus aureus = experiment: TLC bioautography antibacterial assay, S. aureus; assay type: cell-based; details: qualitative
Protocol: as §1, §2, §3

SMILES | stability on storage ([1]; cool temperatures) | stability on storage ([1]; room temperature, in the absence of halifordin (8)) | antibacterial activity (zones of inhibition) [2] | antibacterial activity (zones of inhibition) (Staphylococcus aureus)
CC1=C2c3c(C)coc3CC[C@H](C)[C@H]2CC1=O [trans-Balaenone, (6S,6aR)-1,6,9-trimethyl-5,6,6a,7-tetrahydroazuleno[5,4-b]furan-8(4H)-one] | quite stable | essentially stable | – | –
CC1=C2c3c(C)coc3CCC(C)C2CC1=O (stereo not shown) [Balaenone] | – | – | zones of inhibition | zones of inhibition
